Source: patent publication US8084647B2, “Two-photon probe for real-time monitoring of intracellular calcium ions, method for preparing the probe and method for real-time monitoring of intracellular calcium ions using the probe” (Korea University Industry and Academy Cooperation Foundation, priority 2007, dated 2011)
Where two headings read alike, the source gives them in different places. Each block holds one compound with its values, some of them ahead of it.

Legend:
[1] = Effect of pH on the reactivity (FIG. 11); type: physicochemical; conditions: biologically relevant pH range
Excerpt: FIG. 11 is a graph showing the effect of pH on the reactivity of the compound of Formula 4;

[2] = Two-photon excited fluorescence (TPEF) titration with Ca2+ (Kd^TP); type: binding; conditions: estimated from the two-photon titration curve
Excerpt: In order to determine the Kd^TP for the two-photon process, the TPEF spectra were obtained with a DM IRE2 Microscope (Leica) excited by a mode-locked titanium-sapphire laser source (Coherent Chameleon, 90 MHz, 200 fs) set at wavelength 780 nm and output power 1230 mW, which corresponded to approximately 10 mW average power in the focal plane. The TPEF titration curves (FIG. 6) were obtained and fitted to Equation 3.

[3] = Two-photon action spectra / two-photon cross section; type: physicochemical
Procedure: Thus, TPM images for samples stained with the compound of Formula 4 would be much brighter than those stained with commercial probe. In addition, the two-photon fluorescence enhancement factor (TFEF) estimated from the two-photon titration curve was 44 (Table 2), a value that allowed detection of Ca^2+ by TPM.
The two-photon cross section (δ) was determined by using femto second (fs) fluorescence measurement technique (S. K. Lee, W. J. Yang, J. J. Choi, C. H. Kim, S.-J, Jeon, B. R. Cho, Org. Lett. 2005, 7, 323-326).

[4] = One-photon fluorescence titration with Ca2+ (Kd^OP, enhancement factor, Hill plot); type: binding; conditions: presence of 39 μM Ca2+
Procedure: A series of calibration solutions containing various [Ca^2+] was prepared by mixing two solutions (solution A containing 10 mM K2EGTA and solution B containing 10 mM CaEGTA) in various ratios. Both solutions contained the compound (1 μM) of Formula 4, 100 mM KCl, 30 mM MOPS, and they were adjusted to pH 7.2.
Then, 203 μl of this solution was discarded and replaced by 203 μl of solution B (39 μM free Ca^2+), and the spectrum was recorded. This brings the CaEGTA concentration to 1.00 mM and the [Ca^2]free to about 0.017 μM with no change in the concentration of the probe or of the total EGTA. The [Ca^2+]free is calculated from the Kd of EGTA for Ca^2+ (150.5 nM) using Equation 2: […]
where F is the observed fluorescence intensity, Fmin is the minimum fluorescence intensity, and Fmax is the maximum fluorescence intensity. The Kd value that best fits the titration curve (FIG. 6) with Equation 5 was calculated by using the Excel program as reported (J. R. Long, R. S. Drago, J. Chem. Ed. 1982, 59, 1037; K. Hirose, J. Incl. Phenom. Macrocycl. Chem. 2001, 39, 193).
The dissociation constants (Kd^OP) were calculated from the fluorescence titration curves (FIG. 6), as reported (J. R. Long, R. S. Drago, J. Chem. Educ. 1982, 59, 1037-1039).

[5] = Reactivity for various metal ions (FIG. 10)
Excerpt: FIG. 10 is a graph showing the reactivity of the compound of Formula 4 for various metal ions;

[6] = One-photon absorption and emission spectra, fluorescence quantum yield; type: physicochemical; conditions: for Φ fluorescence quantum yield: ±10%
Procedure: The absorption spectra of the compound of Formula 7 were recorded on a Hewlett-Packard 8453 diode array spectrophotometer, and the fluorescence spectra of the compound were obtained with Amico-Bowman series 2 luminescence spectrometer with a 1 cm standard quartz cell. The fluorescence quantum yield of the compound was determined by using Coumarin 307 as the reference by the literature method (J. N. Demas, G. A. Crosby, J. Phys. Chem. 1971, 75, 991-1024.).

[7] = system: astrocytes; assay: Two-photon microscopy of cultured astrocytes; type: cell-based, rat; conditions: cultured astrocytes labeled with 2 μM probe
Procedure: Astrocytes were taken from cerebral cortices of 1-day-old rats (Sprague-Dawley; SD). Cerebral cortices were dissociated in Hank's balanced salt solution (HBSS; Gibco BRL, Gaithersburg, Md., USA) containing 3 U/ml papain (Worthington Biochemical Corporation, NJ, USA) and plated in 75 mm flasks. To prepare purified astrocytes culture, flasks were shaken for 6 h on a shaker at 37° C., and the floating cells that were displaced into the media were removed. Astrocytes were passaged with 5 min exposure to 0.25% trypsin and replated onto poly-D-lysin-coated glass coverslips at 50˜100 cells/mm^2 and were maintained in Dulbecco's modified Eagle's medium (DMEM; Gibco) supplemented with penicillin/streptomycin and 10% fetal bovine serum (FBS; Gibco) in a CO2 incubator at 37° C. After 7-15 days in vitro, astrocytes were washed three times with serum-free media, and then incubated with 2 μM of the compound of Formula 7 in serum-free media for 20 min at 37° C. The cells were washed three times with phosphate buffered saline (PBS; Gibco) and then imaged after further incubation in colorless serum-free media for 15 min.
The spontaneous increase in [Ca^2+]i also propagated between astrocytes, as indicated by the delayed activity in the neighboring astrocyte (FIGS. 15b and 15d).

[8] = system: acute rat hypothalamic slice; assay: Two-photon microscopy of acute rat hypothalamic slices; type: cell-based
Procedure: Slices were prepared from the hippocampi and the hypothalmic of 2-day-old rat (SD). Coronal slices were cut into 400 μm thick using a vibrating-blade microtome in artificial cerebrospinal fluid (ACSF; 138.6 mM NaCl, 3.5 mM KCl, 21 mM NaHCO3, 0.6 mM NaH2PO4, 9.9 mM D-glucose, 1 mM CaCl2, and 3 mM MgCl2). Slices were incubated with the compound (10 μM) of Formula 7 in ACSF bubbled with 95% O2 and 5% CO2 for 30 min at 37° C. Slices were then washed three times with ACSF and transferred to glass-bottomed dishes (MatTek) and observed in a spectral confocal multi photon microscope.

[9] = previously reported value, cited from earlier work
[10] = 30 mM MOPS, 100 mM KCl, 10 mM EGTA, pH 7.2, absence of free Ca2+
[11] = MOPS buffer pH 7.2, presence of 39 μM free Ca2+
[12] = prolonged observation time in tissue

pH sensitivity [1]: pH-insensitive | FEF^TP two-photon fluorescence enhancement factor [2]: 44 | Φδ / TPEF relative to OG1-Ca2+ ([3]; Ca2+ complexes in buffer): 5 fold | Φδ two-photon action cross section ([3]; presence of 39 μM free Ca2+): 110 GM | λmax^(2) of the two-photon excitation spectra ([3]; presence of 39 μM free Ca2+): 780 nm | δ peak two-photon cross section ([3]; presence of 39 μM free Ca2+, ±15%): 230 GM | FEF^OP fluorescence enhancement factor (F − Fmin)/Fmin, one-photon [4]: 40 | fluorescence enhancement factor relative to OG1 [4]: ~3 fold | λmax^(l) one-photon absorption [6, 10]: 365 nm | λmax^fl one-photon emission [6, 10]: 498 nm | Φ fluorescence quantum yield [6, 10]: 0.012 | λmax^(l) one-photon absorption [6, 11]: 365 nm | λmax^fl one-photon emission [6, 11]: 498 nm | Φ fluorescence quantum yield [6, 11]: 0.49 | photo-stability [8, 12]: high photo-stability
Compound: CC(=O)c1ccc2cc(N(C)CC(=O)Nc3ccc(N(CC(=O)O)CC(=O)O)c(OCCOc4ccccc4N(CC(=O)O)CC(=O)O)c3)ccc2c1 [Formula 4]
response toward CO^2+ [5]: much weaker response | response toward Cu^2+ [5]: no response | response toward Fe^2+ [5]: much weaker response | response toward Mg^2+ [5]: much weaker response | response toward Mn^2+ [5]: modest response | response toward Zn^2+ [5]: modest response | visualization of calcium waves by TPM [7]: clearly capable of visualizing the intra- and intercellular calcium waves | imaging depth in live tissue ([8]; TPM): ~170 μm | photo-toxicity [8, 12]: low photo-toxicity

Compound: Oregon Green 488 BAPTA-1 [OG1]
FEF^OP fluorescence enhancement factor (F − Fmin)/Fmin, one-photon [9]: 14 | FEF^OP fluorescence enhancement factor (F − Fmin)/Fmin, one-photon ([9]; listed as OG1 + Ca^2+): 14^[l]/nd
